The conditions of data set [1]: clinical use, FDA-approved for multiple sclerosis; cited from earlier work.
For data set [2] the following is noted: post-transplantation clinical trials; cited from earlier work.
Data set [3] has as its system mouse sperm. The experiment in a line: Neutral comet assay on mouse sperm. Type of data set: cell-based. The settings on record: mouse sperm, H2O2 alone (1 mM), without ATM inhibitor, n=9, mean±SEM. Here is the method: (§1) Treatment was performed with genotoxic stress (1 mM H2O2), S1P (200 μM), and S1P with genotoxic stress and control in culture for one hour. Also, the use of an ATM inhibitor was utilized (10 μM) (KU-55593, Abcam) (Li et al., 2014). We assessed DNA damage, apoptosis, and chromatin integrity. We also studied the DNA DSB repair gene expression by qRT-PCR in sperm lysates.
Slides were prepared 48 hours prior to experimentation by coating normal glass microscope slides with 500 μl normal melting point agar (NMPA, 0.5% w/v in PBS) solution and left to dry at room temperature for no less than 48 hours. Once samples were obtained, 10 μl of mouse sperm suspension was mixed with 90 μl of 0.5% low melting point agar (LMPA). Then, this 100 μl solution was added to the NMPA-coated slides. Coverslips were added and slides were placed on a metallic tray on ice and in the dark for 5 minutes. The cover slips were then removed and another layer of LMPA was added. Cover slips were subsequently replaced before the LMPA hardened. Slides were then kept in the dark on ice again for another 5 minutes. After ten minutes, the cover slips were removed and slides were placed in staining jars containing ice cold lysing solution (2.5 M NaCl, 100 mM EDTA, sodium N-laurylsacrosinate [SLS]. [1% w/v] and 10 mM Trizma base pH10, and 1% Triton-X-100 and 10% DMSO [immediately adding before use]) for 1 hour at 4° C. in a dark place.
After this lysis step, the slides were washed three times for 5 minutes with the cold electrophoresis buffer (0.089 M Tris base, 0.089 M boric acid and 2 mM EDTA [pH 8.3]), and then placed flatly in the electrophoresis tank face up for 30 minutes. This incubation period was used to achieve the unwinding of the DNA. Electrophoresis was then performed at 18 V for 60 minutes. After this, slides were washed twice in PBS for 5 minutes each. Before analysis could occur, the sperm within the slides needed to be fixed by two 10 minute washes in ethanol, and then air drying at room temperature. Ethidium bromide (50 μl at 10 μg/ml in water) was then added on the slide, and sealed with a cover slip. Slides were kept moist, wrapped in aluminum foil to prevent light exposure, and stored at 4° C. until analysis (Smart et al., 2008).
Slides from both alkaline and neutral comets were imaged by fluorescence microscopy using a Nikon OPTIPHOT microscope. ImageJ was used for comet assay analysis, which calculated tail length, tail moment, and % of DNA in the tail. […] The comets were “on scale” for the calculations to be correct (the brightest pixels of interest were below 255 on an 8-bit scale). […] To analyze the slides, an oval around the sperm head was drawn and calculated and then an oval around the sperm tail was drawn and calculated. […] It was calculated as the Pythagorean distance between two points. […]

The test system of data set [4] is mouse sperm. The experiment in a line: Alkaline comet assay on mouse sperm. The class given is cell-based. Particulars: mouse sperm, H2O2 alone (1 mM), without ATM inhibitor, n=9, mean±SEM. As for the experimental part: as §1
Slides were prepared 48 hours prior to experimentation by coating normal glass microscope slides with 500 μl normal melting point agar (0.5% w/v in PBS) solution and left to dry at room temperature for no less than 48 hours. Then, 10 μl of mouse sperm suspension was mixed with 90 μl of 0.5% LMPA. Then this 100 μl solution was added to the NMPA-coated slides. Coverslips were added and slides were placed on a metallic tray on ice and in the dark for 5 minutes. The cover slips were removed and a 90 μl layer of LMPA was added. Cover slips were subsequently replaced before the LMPA hardened. Slides were then kept in the dark on ice again for another 5 minutes. After ten minutes, the cover slips were removed and slides were placed in staining jars containing ice cold lysing solution (2.5 M NaCl, 200 mM NaOH, 100 mM EDTA, 10 mM Trizma Base, 1% Triton X-100 and 10% DMSO [pH 10]) for 1.5 hours at 4° C. in a dark place.
After this lysis step, the slides were washed three times for 5 minutes with TE buffer (pH 8.0), and then placed flatly in the electrophoresis tank face up for 30 minutes to achieve the unwinding of the DNA. The alkaline electrophoresis buffer in this tank included 300 mM NaOH and 1 mM EDTA [pH13]. This incubation period was used to achieve the alkaline unwinding of the DNA. Electrophoresis was then performed at 25 V, 300 mA for 30 minutes. After this, slides were washed twice in neutralization buffer (0.4 M Tris, pH 7.5) for 5 minutes each. Before analysis could occur, the sperm within the slides needed to be fixed by draining the slides well on paper towels and then subjecting them to two 10 minute washes in ethanol, and then air drying at room temperature for 5 minutes. Ethidium bromide (50 μl at 10 μg/ml in water) was then added on the slide, and sealed with a cover slip. Slides were kept moist, wrapped in aluminum foil to prevent light exposure, and stored at 4° C. until analysis (Williams et al., 2014).
Slides from both alkaline and neutral comets were imaged by fluorescence microscopy using a Nikon OPTIPHOT microscope. ImageJ was used for comet assay analysis, which calculated tail length, tail moment, and % of DNA in the tail. […] To analyze the slides, an oval around the sperm head was drawn and calculated and then an oval around the sperm tail was drawn and calculated. […] It was calculated as the Pythagorean distance between two points. […]

A further data set has as its system human sperm. The experiment in a line: Alkaline comet assay on human sperm. Type of data set: cell-based. Particulars: H2O2 alone, without ATM inhibitor, n=3, mean±SEM.

The values below come from US20190183910A1, “ENHANCING DNA REPAIR AND PREVENTING AGING AND ITS CONSEQUENCES IN REPRODUCTIVE AND OTHER CELLS” (NEW YORK MEDICAL COLLEGE, priority 2016, published 2019).

Take `CCCCCCCCc1ccc(CCC(N)(CO)CO)cc1` [FTY720]: the safety profile result in data set [1] is given as “acceptable safety profile”. In data set [2], the “benefit as antirejection medication” value is given as “failed to show any significant benefit”.

Take `OO` [H2O2, reference compound]: in the data set with mouse sperm [3], the “percent tail DNA, neutral comet” value came out at 29.6±0.64%. Besides, the “percent tail DNA, alkaline comet” value came to 27.3±0.90% in the data set with mouse sperm [4] and 24.0±1.70% with human sperm.
